Reference: paper PMC5340827 (European Journal of Drug Metabolism and Pharmacokinetics, 2016)

What was measured:
[1] = test system: LH, FSH and 17β-estradiol in the serum; assay: Hormonal profile; assay type: in vivo, rat; conditions: s.c. 1 µg/kg; for highest estradiol concentration, suspension form: 1 h after injection
[2] = cited from earlier work
[3] = Pharmacokinetics and bioavailability after single s.c. injection; conditions: for extent of biological availability (EBA), solution relative to suspension: (AUCsolution/AUCsuspension) × 100 %, from AUC0−∞; for presence in the plasma after injection in the form of suspension: 24 h after s.c. 6 mg/kg

Row | Substance | time of maximal concentration of estradiol, form of solution ([1]; solution) [min] | highest estradiol concentration, suspension form [1] [pg/mL] | time of highest concentration of FSH, suspension form [1] [h] | activity / relative potency in relation to natural GnRH [2] | EBA of dalarelin relative to buserelin, form of solution ([3]; (AUCdalarelin solution/AUCbuserelin solution) × 100 %) [%] | EBA of dalarelin relative to buserelin, form of suspension ([3]; (AUCdalarelin suspension/AUCbuserelin suspension) × 100 %) [%] | extent of biological availability (EBA), solution relative to suspension [3] [%] | presence in the plasma after injection in the form of suspension [3] | maximal concentration of estradiol, form of solution ([1]; solution, 30 min after injection) [pg/mL]
1 | dalarelin | 30 | 24.2 | 2 | roughly 14 times | 53 | 83 | 8 | detectable in the plasma even after 24 h | –
2 | buserelin | 30 | 21.4 | 4 | 20 times | – | – | 13 | detectable in the plasma even after 24 h | 45.7
